The test concerns the target T1, TAAR1 (Homo sapiens, UniProt Q96RJ0).
T1 sequence (Q96RJ0 1-339): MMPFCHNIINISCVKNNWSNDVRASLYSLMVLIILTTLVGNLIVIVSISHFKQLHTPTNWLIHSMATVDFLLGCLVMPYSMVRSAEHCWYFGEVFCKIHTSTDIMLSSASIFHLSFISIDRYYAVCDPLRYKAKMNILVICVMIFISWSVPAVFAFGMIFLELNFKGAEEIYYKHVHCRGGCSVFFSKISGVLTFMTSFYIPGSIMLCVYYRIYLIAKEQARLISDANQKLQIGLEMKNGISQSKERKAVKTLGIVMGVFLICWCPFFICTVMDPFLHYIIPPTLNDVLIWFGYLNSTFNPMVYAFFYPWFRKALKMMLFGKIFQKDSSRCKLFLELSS
Description: Intrinsic activity, Hit Hunter cAMP assay. The class given is cell-based. Here is the method:
The intrinsic activity study at cells with overexpression of TAAR1 (Eurofins, cat. No. 95-0173C2) was carried out at Eurofins Discoveries (Fremont, USA) using the Hit Hunter cAMP method. This assay monitors the activation of a GPCR via Gi and Gs secondary messenger signaling in a homogenous, non-imaging assay format using a technology developed by DiscoverX called Enzyme Fragment Complementation (EFC) with β-galactosidase (β-Gal) as the functional reporter. The enzyme is split into two complementary portions: EA for Enzyme Acceptor and ED for Enzyme Donor. ED is fused to cAMP and in the assay competes with cAMP generated by cells for binding to a cAMP-specific antibody. Active β-Gal is formed by complementation of exogenous EA to any unbound EDcAMP.
cAMP Hunter cell lines were expanded from freezer stocks according to standard procedures. Cells were seeded in a total volume of 20 µL into white-walled, 384-well microplates and incubated at 37 ℃ for the appropriate time prior to testing. For agonist determination, cells were incubated with a sample to induce a response. Media was aspirated from cells and replaced with 15 µL 2:1 HBSS/10 mM Hepes:cAMP XS + Ab reagent. Intermediate dilution of sample stocks was performed to generate 4X samples in assay buffer. 5 µL of 4 × sample was added to cells and incubated at 37 ℃ or room temperature for 30 or 60 min. Vehicle concentration was 1%. […] Microplates were read following signal generation with a PerkinElmer Envision instrument for chemiluminescent signal detection.

The mark [1] stands for this setting: cAMP, Agonist, Conc(M) 1.00E-07.

As a reminder, the EC50 is the midpoint of the concentration-response curve.

Where “and” joins values, the source holds several entries; their conditions need not be identical. Equal values may be shown once. Read-outs that look alike come from different tables or passages of the source.

Turning to `Clc1cccc(N2CCNCC2)c1` [mCPP, 1-(3-Chlorophenyl)piperazine], the EC50 worked out at 237 µM and the “Intrinsic activity at TAAR1 (in words)” value is “weak agonistic activity”. Where the note is “cAMP, Agonist, Conc(M) 1e-6”, the “Average Value (raw signal)” value was 1440.00; the “Value 1 / Value 2 (raw signal)” value is 1520 and 1360. Moreover, for the setting “cAMP, Agonist, Conc(M) 1e-5”, the “Average Value (raw signal)” value worked out at 1660.00; the “Value 1 / Value 2 (raw signal)” value is 1520 and 1800. Further, where the note is “cAMP, Agonist, Conc(M) 0.0001”, the “Average Value (raw signal)” value amounted to 2760.00; the “Value 1 / Value 2 (raw signal)” value is 2560 and 2960. Besides, the Emax at 100 µM (cAMP, Agonist, Conc(M) 0.0001 (10^–4 M), read-out: % Efficacy (of the full agonist tyramine)) came out at 34%. Also, under setting [1], the “Average Value (raw signal)” value is 1260.00; the “Value 1 / Value 2 (raw signal)” value was 1440 and 1080.
On to `NCCc1ccc(O)cc1` [p-Tyramine], for which the “Curve Bottom” value (cAMP, Agonist) is recorded as -5.337. The “Curve Top” value (cAMP, Agonist) is reported as 100.3. Under “cAMP, Agonist”, the Hill was determined as 1.0838. Besides, the “Raw Value” is 800 and 1040 (cAMP, Agonist, Conc 0.0254026); 1080 and 1160 (cAMP, Agonist, Conc 0.0762079); 1640 (cAMP, Agonist, Conc 0.228624); 3120 and 3520 (cAMP, Agonist, Conc 0.685871); 4760 and 4680 (cAMP, Agonist, Conc 2.05761); 5360 and 5760 (cAMP, Agonist, Conc 6.17284). Moreover, the “Raw Value” runs as follows: (cAMP, Agonist, Conc 18.5185) 5600 and 6120; (cAMP, Agonist, Conc 55.5556) 6160 and 6360; (cAMP, Agonist, Conc 166.667) 6400 and 6000; (cAMP, Agonist, Conc 500) 6520 and 5640. Moreover, the “Percent Efficacy” value is 12.1951 and 16.0976 (cAMP, Agonist, Conc 0.228624); 41.0732 and 48.8781 (cAMP, Agonist, Conc 0.685871); 73.0732 and 71.5122 (cAMP, Agonist, Conc 2.05761); 84.7805 and 92.5854 (cAMP, Agonist, Conc 6.17284); 89.4634 and 99.6098 (cAMP, Agonist, Conc 18.5185); 100.39 and 104.293 (cAMP, Agonist, Conc 55.5556). Moreover, the “Percent Efficacy” value (cAMP, Agonist, Conc 166.667) was 105.073 and 97.2683; the “Percent Efficacy” value (cAMP, Agonist, Conc 500) is 107.415 and 90.2439. The Emax (cAMP, Agonist, read-out: Max Response) worked out at 101%. In addition, the EC50 (cAMP, Agonist, read-out: RC50 (Result Type EC50)) was found to be 0.802 µM.

These data come from PMC10539439 (Pharmacological Reports, 2023).
